Test results as given in patent publication US20180289678A1, “PHARMACEUTICAL COMPOSITION, PHARMACEUTICAL DOSAGE FORM, PROCESS FOR THEIR PREPARATION, METHODS FOR TREATING AND USES THEREOF” (Boehringer Ingelheim International GmbH, priority 2009, published 2018).
Like-named read-outs stand apart in the source and are kept apart here.

Experiment: Study .5: single dose study in healthy Japanese volunteers, pharmacokinetic parameters
Format: in vivo, human
Settings: Study .5, fasted
Procedure: 5. Pharmacokinetic Parameters
The pharmacokinetic parameters of pharmaceutical compositions and pharmaceutical dosage forms are assessed in healthy volunteer and patient populations. In the studies shown below, the participants fasted on the day of sampling, unless as otherwise stated (see for example study .3). The active substance in the studies below is the compound (I.9), preferably in the crystalline form (I.9X), and the dose of active ingredient is indicated in mg.
For the quantification of plasma concentrations of the active ingredient, 2.7 mL of blood was collected and transferred into an EDTA (ethylendiaminetetraacetic acid)-anticoagulant blood drawing tube. The EDTA-anticoagulated blood samples were centrifuged immediately after collection. Centrifugation lasted for about 10 minutes (at about 2,000×gf to 4,000×gf) at 4-8° C. or within 30 minutes while stored on ice. Concentrations of active substance in EDTA human plasma samples were quantitated using a HPLC/MS/MS method. The assay method comprised a solid phase supported liquid-liquid extraction of human plasma coupled with HPLC/MS/MS determination of the extracted samples. The HPLC/MS/MS assay was validated for the range of 1.11 to 1110 nM in human plasma.
Study .5: Single dose study in a healthy volunteer population of N=48 (Japanese volunteers). Healthy volunteers were administered tablets as described in Example 11 (section Examples of formulations).
AUC0-inf:area under the concentration-time curve of the analyte in plasma over the time interval from 0 extrapolated to infinity.
Cmax: maximum concentration of the analyte in plasma.
Tmax: time from dosing to maximum concentration.

OC[C@H]1O[C@@H](c2ccc(Cl)c(Cc3ccc(O[C@H]4CCOC4)cc3)c2)[C@H](O)[C@@H](O)[C@@H]1O [Compound (I.9), 1-chloro-4-(β-D-glucopyranos-1-yl)-2-[4-((S)-tetrahydrofuran-3-yloxy)-benzyl]-benzene]
AUC0-inf Max (5 mg single dose): 1.31 µM·h | AUC0-inf Min (5 mg single dose): 1 µM·h | AUC0-inf,norm Max (5 mg single dose): 262 nmol·h/L/mg | AUC0-inf,norm Median (5 mg single dose): 230 nmol·h/L/mg | AUC0-inf,norm Min (5 mg single dose): 200 nmol·h/L/mg | AUC0-inf,norm gMean (5 mg single dose): 228 nmol·h/L/mg | Cmax,norm Max (5 mg single dose): 46 nmol/L/mg | Cmax,norm Median (5 mg single dose): 31 nmol/L/mg | Cmax,norm Min (5 mg single dose): 25 nmol/L/mg | Cmax,norm gMean (5 mg single dose): 32 nmol/L/mg | tmax Min (5 mg single dose): 0.750 h | Cmax (5 mg single dose, read-out: Cmax Max): 230 nM | Cmax (5 mg single dose, read-out: Cmax Min): 123 nM | AUC0-inf Max (10 mg single dose): 3.19 µM·h | AUC0-inf Min (10 mg single dose): 2.34 µM·h | AUC0-inf,norm Max (10 mg single dose): 319 nmol·h/L/mg | AUC0-inf,norm Median (10 mg single dose): 264 nmol·h/L/mg | AUC0-inf,norm Min (10 mg single dose): 234 nmol·h/L/mg | AUC0-inf,norm gMean (10 mg single dose): 266 nmol·h/L/mg | Cmax,norm Max (10 mg single dose): 45 nmol/L/mg | Cmax,norm Median (10 mg single dose): 40 nmol/L/mg | Cmax,norm Min (10 mg single dose): 24 nmol/L/mg | Cmax,norm gMean (10 mg single dose): 37 nmol/L/mg | tmax Max (10 mg single dose): 3.00 h | tmax Min (10 mg single dose): 1.00 h | Cmax (10 mg single dose, read-out: Cmax Max): 454 nM | Cmax (10 mg single dose, read-out: Cmax Min): 242 nM | AUC0-inf Max (25 mg single dose): 7.15 µM·h | AUC0-inf Min (25 mg single dose): 5.04 µM·h | AUC0-inf,norm Max (25 mg single dose): 286 nmol·h/L/mg | AUC0-inf,norm Median (25 mg single dose): 254 nmol·h/L/mg | AUC0-inf,norm Min (25 mg single dose): 202 nmol·h/L/mg | AUC0-inf,norm gMean (25 mg single dose): 245 nmol·h/L/mg | Cmax,norm Max (25 mg single dose): 32 nmol/L/mg | Cmax,norm Median (25 mg single dose): 26 nmol/L/mg | Cmax,norm Min (25 mg single dose): 24 nmol/L/mg | Cmax,norm gMean (25 mg single dose): 26 nmol/L/mg | tmax Max (25 mg single dose): 4.00 h | tmax Min (25 mg single dose): 1.00 h | Cmax (25 mg single dose, read-out: Cmax Max): 790 nM | Cmax (25 mg single dose, read-out: Cmax Min): 605 nM | AUC(0-inf) (human, plasma, oral, 5 mg, 5 mg single dose, read-out: AUC0-inf Mean): 1.14 µM·h | AUC(0-inf) (human, plasma, oral, 5 mg, 5 mg single dose, read-out: AUC0-inf Median): 1.15 µM·h | AUC(0-inf) (human, plasma, oral, 5 mg, 5 mg single dose, read-out: AUC0-inf gMean): 1.14 µM·h | Cmax (human, plasma, oral, 5 mg, 5 mg single dose, read-out: Cmax Mean): 166 nM | Cmax (human, plasma, oral, 5 mg, 5 mg single dose, read-out: Cmax Median): 153 nM | Cmax (human, plasma, oral, 5 mg, 5 mg single dose, read-out: Cmax gMean): 161 nM | Tmax (human, plasma, oral, 5 mg, 5 mg single dose, read-out: tmax Mean): 1.63 h | Tmax (human, plasma, oral, 5 mg, 5 mg single dose, read-out: tmax Median): 2 h | Tmax (human, plasma, oral, 5 mg, 5 mg single dose, read-out: tmax gMean): 1.51 h | AUC(0-inf) (human, plasma, oral, 10 mg, 10 mg single dose, read-out: AUC0-inf Mean): 2.67 µM·h | AUC(0-inf) (human, plasma, oral, 10 mg, 10 mg single dose, read-out: AUC0-inf Median): 2.64 µM·h | AUC(0-inf) (human, plasma, oral, 10 mg, 10 mg single dose, read-out: AUC0-inf gMean): 2.66 µM·h | Cmax (human, plasma, oral, 10 mg, 10 mg single dose, read-out: Cmax Mean): 379 nM | Cmax (human, plasma, oral, 10 mg, 10 mg single dose, read-out: Cmax Median): 398 nM | Cmax (human, plasma, oral, 10 mg, 10 mg single dose, read-out: Cmax gMean): 372 nM | Tmax (human, plasma, oral, 10 mg, 10 mg single dose, read-out: tmax Mean): 1.67 h | Tmax (human, plasma, oral, 10 mg, 10 mg single dose, read-out: tmax Median): 1.5 h | Tmax (human, plasma, oral, 10 mg, 10 mg single dose, read-out: tmax gMean): 1.54 h | AUC(0-inf) (human, plasma, oral, 25 mg, 25 mg single dose, read-out: AUC0-inf Mean): 6.18 µM·h | AUC(0-inf) (human, plasma, oral, 25 mg, 25 mg single dose, read-out: AUC0-inf Median): 6.34 µM·h | AUC(0-inf) (human, plasma, oral, 25 mg, 25 mg single dose, read-out: AUC0-inf gMean): 6.13 µM·h | Cmax (human, plasma, oral, 25 mg, 25 mg single dose, read-out: Cmax Mean): 661 nM | Cmax (human, plasma, oral, 25 mg, 25 mg single dose, read-out: Cmax Median): 643 nM | Cmax (human, plasma, oral, 25 mg, 25 mg single dose, read-out: Cmax gMean): 658 nM | Tmax (human, plasma, oral, 25 mg, 25 mg single dose, read-out: tmax Mean): 2.33 h | Tmax (human, plasma, oral, 25 mg, 25 mg single dose, read-out: tmax Median): 2 h | Tmax (human, plasma, oral, 25 mg, 25 mg single dose, read-out: tmax gMean): 2.14 h
